Results on 95 molecules are retold here after PubChem BioAssay AID449750 (Broad Institute, 2010).

The source made the active and inactive calls. No rule for the calls is given here.

The assay in a line: non-covalent RecA intein splicing inhibitors, dose response, biochemical, cell-free, fluorescence, secondary screen (AID 449750).
As for `O=C(Oc1ccc2ccccc2c1)c1ccco1`, the AC50 was > 38 µM (inactive).
`COc1ccc(-c2nnc(SC(=O)N3c4ccccc4Sc4ccccc43)o2)cc1`: the AC50 was 4.86 µM.
Take `CC(C)(C)c1cc[n+](C2=C([O-])c3ccccc3C(=O)/C2=N\S(=O)(=O)c2ccccc2)cc1`: the half-maximal activity concentration (AC50) is 9.74 µM.
Regarding `C=CCOc1ccccc1CN(C(=O)CCl)c1ccc2c(c1)OCO2`, the AC50 is 1.28 µM.
For `CNCc1ccccc1Sc1ccc(O)c(O)c1` the value was > 38 µM (inactive); for `COc1ccc(CC2=CC(=O)c3ccccc3C2=O)cc1`, 6.95 µM.
For `CCOC(=O)c1c(CCl)nc2ccccc2c1-c1ccccc1` the value was 8.34 µM.
For `CSc1nnc(NC(=O)c2nc(S(=O)(=O)Cc3ccccc3)ncc2Cl)s1`, the AC50 is > 38 µM (inactive).
The figure for `Oc1cc(O)c2c(c1)O[C@H](c1ccc(O)c(O)c1)[C@@H](O)C2` is > 38 µM (inactive).
As to `COc1ccc(CNc2ccc3cn[nH]c3c2)c(OC)c1OC`, the AC50 was 14 µM.
With `O=C(NC1CCCCC1)C(c1cccnc1)N(C(=O)CCl)c1ccc(F)cc1` (stereo not given), the half-maximal activity concentration (AC50) is 5.58 µM.
Consider `C#CCOc1ccc(OC)cc1C(c1c(C)[nH][nH]c1=O)c1c(C)[nH][nH]c1=O`, for which the AC50 is 17.3 µM.
In the case of `O=C(O)CN1C(=O)/C(=C\c2ccc(OC(=O)c3ccco3)cc2)SC1=S`, the AC50 is > 38 µM (inactive).
With `COc1cc(C(=O)c2nccc3cc(OC)c(OC)cc23)c([N+](=O)[O-])cc1OC`, the AC50 was 18.3 µM.
Turning to `O=C(Oc1cccc(OC(=O)c2ccco2)c1)c1ccco1`, the half-maximal activity concentration (AC50) is 5.11 µM.
For `COc1ccccc1-c1cn[nH]c(=S)n1` the value was > 38 µM (inactive).
With `COC(=O)c1ccc(-n2c(C)cc(C(=O)CCl)c2C)cc1`, the concentration at half-maximal activity (AC50) was 17.8 µM.
The figure for `CC(=O)N1CCC2(CC1)C(C#N)=C(N)Oc1n[nH]c(C)c12` is > 38 µM (inactive).
Turning to `COc1ccccc1NC(=O)c1cnc(SCC(=O)NCC2CCCO2)n(C)c1=O` (stereo not given), the AC50 is > 38 µM (inactive).
As for `O=C(CCl)N1CCN(S(=O)(=O)c2ccc3ccccc3c2)CC1`, the AC50 is 6.51 µM.
The figure for `O=S(=O)(CCSc1nc2ccccc2s1)c1nc2ccccc2s1` is 27.3 µM; for `COCc1[nH]nc2c1C1(CCSCC1)C(C#N)=C(N)O2` it is > 38 µM (inactive); for `Cn1cnc([N+](=O)[O-])c1Oc1ccc2ccccc2c1` it is > 38 µM (inactive).
Take `CCC(C)[C@H](NC(=O)NC1CCN(Cc2ccccc2)CC1)C(=O)OC` (stereo not given in full): the AC50 was 5.82 µM.
As for `COC(=O)c1ccc(C(c2c(C)[nH][nH]c2=O)c2c(C)[nH][nH]c2=O)cc1`, the AC50 is > 38 µM (inactive).
Consider `Cc1ccc(C)c(S(=O)(=O)/N=C2\C=C(NS(=O)(=O)c3ccccc3)C(=O)c3ccccc32)c1`, for which the AC50 is 2.79 µM.
With `N#CC(c1ccccc1)c1cnccn1` (stereo not given), the AC50 was > 38 µM (inactive).
For `Cc1ccc(-c2cc(=O)[nH][nH]2)c(C)c1`, the AC50 was 34.3 µM.
Take `CNC(=O)c1nnsc1S(=O)c1ccc(Cl)cc1` (stereo not given): the AC50 was > 38 µM (inactive).
On to `COc1ccccc1NC(=O)C1=C(C)Nc2nnnn2C1c1ccncc1` (stereo not given), for which the AC50 is > 38 µM (inactive).
For `O=[N+]([O-])c1ccc(S(=O)(=O)c2cccc(C(F)(F)F)c2)nc1` the value was > 38 µM (inactive).
The figure for `CS/C(=C\[N+](=O)[O-])Nc1ccc(Cl)cc1` is > 38 µM (inactive); for `Cc1cc(C)c(C#N)c(SCc2[nH]nc3c2C(c2ccc(F)cc2)C(C#N)=C(N)O3)n1` (stereo not given) it is 29.2 µM; for `O=[N+]([O-])c1ccc(N2CCCC(C(F)(F)F)C2)c2ccncc12` (stereo not given) it is > 38 µM (inactive).
`CCNC1=C(Cl)C(=O)c2ccccc2C1=O`: the half-maximal activity concentration (AC50) was 22.3 µM.
For the molecule `CCOc1cccc(-c2cc(=O)[nH][nH]2)c1`, the concentration at half-maximal activity (AC50) was 10.7 µM.
On to `COC(=O)COc1c(Cl)cc(C(c2c(C)[nH][nH]c2=O)c2c(C)[nH][nH]c2=O)cc1OC`, for which the AC50 is 27.8 µM.
For `CC(NC(=O)/C(C#N)=C/c1ccc([N+](=O)[O-])o1)c1ccccc1` (stereo not given) the value was > 38 µM (inactive); for `CC1CCc2c(sc3nc(C(C)(C)C)nc(N4CCN(C(=O)CCl)CC4)c23)C1` (stereo not given), 2.61 µM; for `COc1ccc(/C=C/C(=O)c2ccc(O)cc2)cc1COc1ccc(F)cc1`, > 38 µM (inactive).
The figure for `O=C(N/N=C/c1ccc([N+](=O)[O-])o1)c1ccccc1NS(=O)(=O)c1cccs1` is > 38 µM (inactive); for `Nc1ccc2nc(Cc3ccccc3)[nH]c2c1` it is > 38 µM (inactive).
For the molecule `CCOC(=O)c1sc(N(Cc2ccccc2)C(=O)CCl)nc1C`, the AC50 was 5.79 µM.
On to `CSc1nc(-c2ccco2)nn1C(=O)c1cccs1`, for which the AC50 is > 38 µM (inactive).
As to `COC(=O)c1sc(-c2cccs2)cc1NC(=O)/C=C/C(=O)O`, the concentration at half-maximal activity (AC50) was 35.9 µM.
Turning to `Cc1nccn1-c1c([N+](=O)[O-])c(=O)n(C)c2ccccc12`, the AC50 is > 38 µM (inactive).
For `CCOc1ccc(-n2c(C)cc(C(=O)CCl)c2C)cc1`, the AC50 is 9.25 µM.
With `CCOc1cc(/C=C2\C(=O)N(c3ccc(C(N)=O)cc3)N=C2C)ccc1OC(=O)c1cccs1`, the half-maximal activity concentration (AC50) is 2.76 µM.
The figure for `Cc1ccc(NC(=O)c2cnc(SCC(=O)NCC3CCCO3)n(C)c2=O)cc1C` (stereo not given) is > 38 µM (inactive).
For `CC(=O)Oc1c(/C=C(\C#N)C(N)=O)[nH]c2ccccc12`, the AC50 is > 38 µM (inactive).
For `CCOc1ccccc1C1C(C#N)=C(N)Nc2onc(-c3ccccc3)c21` (stereo not given), the AC50 is 33.4 µM.
In the case of `CC(=O)n1cc(N(C(=O)CCl)c2ccccc2)c2ccccc21`, the AC50 is 3.56 µM.
The figure for `CC1CCCC(NC(=O)NC(=O)CCl)C1C` (stereo not given) is 29.3 µM; for `CCc1ccc(OCC(=O)N/N=C2\CC(=O)c3ccccc32)cc1` it is 26.8 µM; for `COC(=O)c1c(NC(=O)/C=C/C(=O)O)sc(C)c1-c1ccc(C)c(C)c1` it is 26.5 µM.
Take `CCC(C)NC(=O)c1c(N)n(Cc2ccc3c(c2)OCO3)c2nc3ccccc3nc12` (stereo not given): the half-maximal activity concentration (AC50) was 26.7 µM.
For `COc1cc(/C=C2/C(=O)N(c3ccccc3)N=C2C)ccc1OS(=O)(=O)c1ccccc1` the value was 3.34 µM; for `Nc1ccc(N(CCO)CCO)cc1`, > 38 µM (inactive).
With `COC(=O)c1sc(-c2ccc(C(C)(C)C)cc2)cc1NC(=O)/C=C/C(=O)O`, the AC50 is 5.71 µM.
The figure for `CCN(CC)c1ccc2oc(=O)c(C)nc2c1` is 37.2 µM; for `Cc1cc2nc3ccc(=[N+](C)C)cc-3sc2cc1N` it is 13.1 µM.
As to `N#CC1(NC(=O)COC(=O)c2cc(O)c3ccccc3c2O)CCCCC1`, the half-maximal activity concentration (AC50) is 10.2 µM.
Turning to `CCOc1cc(/C=C2/SC(=S)N(Cc3ccccc3)C2=O)ccc1O`, the AC50 is > 38 µM (inactive).
On to `CCc1ccc(S(=O)(=O)Nc2ccc(O)c3ccccc23)cc1`, for which the AC50 is 0.535 µM.
For `COc1ccc(C=C(c2nc3ccccc3s2)c2nc3ccccc3s2)cc1O` the value was 3.04 µM; for `COc1cc(C(C(=O)NC2CCCCC2)N(CCN2CCOCC2)C(=O)C2COc3ccccc3O2)cc(OC)c1OC` (stereo not given), > 38 µM (inactive); for `COc1cc(C(c2c(C)[nH][nH]c2=O)c2c(C)[nH][nH]c2=O)ccc1OS(=O)(=O)c1ccccc1`, 9.54 µM.
The figure for `Cc1ccc(NC(=O)c2cc(NC(=O)/C=C\C(=O)O)ccc2N2CCCCC2)cc1` is 9.66 µM; for `Cc1ccc(N2C(=O)C(Cl)=C(N3CCN(C)CC3)C2=O)c(C)c1` it is > 38 µM (inactive); for `O=C(O)CSc1cc(NS(=O)(=O)c2ccc(Br)cc2)c2ccccc2c1O` it is 2.2 µM.
Turning to `CCOC(=O)CSc1nnc(NCC(=O)OC(C)C)c(=O)[nH]1`, the AC50 is > 38 µM (inactive).
As for `O=C(NC1(O)C(=O)c2ccccc2C1=O)c1c(Cl)cccc1Cl`, the AC50 was 12.5 µM.
For `N#C/C(=C/c1ccc2c(c1)OCO2)C(=O)Nc1ccc(O)cc1` the value was > 38 µM (inactive).
The figure for `CCOc1ccc(C(c2c(C)[nH][nH]c2=O)c2c(C)[nH][nH]c2=O)cc1OCC` is 9.1 µM.
For `O=C(Cc1cc(=O)[nH][nH]1)N/N=C/c1cccc(Cl)c1Cl`, the half-maximal activity concentration (AC50) was 20 µM.
For the molecule `O=[N+]([O-])C(/C=C(/Cl)[N+](=O)[O-])=C(N1CCCCC1)N1CCCCC1`, the AC50 is > 38 µM (inactive).
For `CCOc1ccc(/C=C2\SC(=S)N(CCC(=O)Nc3ccccc3C(=O)O)C2=O)cc1` the value was 18.3 µM; for `CCN(CC)CCOc1ccc(/C(=C(/Cl)c2ccccc2)c2ccccc2)cc1`, 9.31 µM; for `O=C1C(Nc2ccccc2)=C/C(=N/S(=O)(=O)c2cccs2)c2ccccc21`, 0.226 µM.
In the case of `COc1ccc(C(C[N+](=O)[O-])c2c(C)[nH]n(-c3ccccc3)c2=O)cc1` (stereo not given), the concentration at half-maximal activity (AC50) was 2.8 µM.
For `CC(C)CNC(=O)c1c(N)n(Cc2ccc3c(c2)OCO3)c2nc3ccccc3nc12`, the AC50 was 5.59 µM.
With `O=C(CCl)NN=C(c1ccccc1)c1ccccc1`, the AC50 is 6.37 µM.
In the case of `O=c1cc(-c2ccc(C3CCCCC3)cc2)[nH][nH]1`, the half-maximal activity concentration (AC50) is 7.41 µM.
For `Cc1nnc(NC(=O)c2nc(S(=O)(=O)Cc3ccccc3)ncc2Cl)s1` the value was 26.5 µM.
As for `COc1ccc(C2CC(c3cccs3)=NN2C(=O)CSC2=NCCS2)cc1` (stereo not given), the half-maximal activity concentration (AC50) is 38.2 µM.
Consider `O=C(Nc1ccc(Cl)cc1)/C(=C/c1cccc(O)c1)c1nc2ccccc2s1`, for which the half-maximal activity concentration (AC50) was 3.1 µM.
As for `Cc1cc(C)cc(Cn2ncc(Cl)c(Cl)c2=O)c1`, the half-maximal activity concentration (AC50) was 1.38 µM.
The figure for `O=c1[nH]cc(NCCc2ccccc2)c(=O)[nH]1` is > 38 µM (inactive); for `O=C(OCn1ncc(Cl)c(Cl)c1=O)c1cccc(C(F)(F)F)c1` it is 12.9 µM.
As for `CCCc1c(C)c2c(C)[nH]nc2oc1=O`, the AC50 was > 38 µM (inactive).
With `CCNc1ccccc1CP(=O)(c1ccccc1)c1ccccc1O` (stereo not given), the AC50 is 22.6 µM.
As for `COc1cccc(NC(=O)c2nc(S(C)(=O)=O)ncc2Cl)c1`, the AC50 was > 38 µM (inactive).
In the case of `Cc1[nH][nH]c(=O)c1C(c1cc([N+](=O)[O-])ccc1O)c1c(C)[nH][nH]c1=O`, the AC50 is 14.6 µM.
Take `Nc1ccc2nc(N3CCOCC3)sc2c1`: the AC50 was > 38 µM (inactive).
As to `CC(C)(C)c1cc[n+](C2=C([O-])c3ccccc3C(=O)/C2=N\S(=O)(=O)c2cccs2)cc1`, the half-maximal activity concentration (AC50) was 8.96 µM.
